From paper PMC5437670 (Journal of the American Chemical Society, 2017)

Assays:
[1] = molecular target: T1, Thermotoga maritima TmGH1 β-glucosidase (Thermotoga maritima, UniProt Q08638); assay: Kinetic studies of reversible inhibition of TmGH1; assay type: biochemical; settings: for inhibition of TmGH1 (in words): p-nitrophenyl β-D-glucopyranoside, Lineweaver–Burk method
T1 sequence (Q08638 1-446): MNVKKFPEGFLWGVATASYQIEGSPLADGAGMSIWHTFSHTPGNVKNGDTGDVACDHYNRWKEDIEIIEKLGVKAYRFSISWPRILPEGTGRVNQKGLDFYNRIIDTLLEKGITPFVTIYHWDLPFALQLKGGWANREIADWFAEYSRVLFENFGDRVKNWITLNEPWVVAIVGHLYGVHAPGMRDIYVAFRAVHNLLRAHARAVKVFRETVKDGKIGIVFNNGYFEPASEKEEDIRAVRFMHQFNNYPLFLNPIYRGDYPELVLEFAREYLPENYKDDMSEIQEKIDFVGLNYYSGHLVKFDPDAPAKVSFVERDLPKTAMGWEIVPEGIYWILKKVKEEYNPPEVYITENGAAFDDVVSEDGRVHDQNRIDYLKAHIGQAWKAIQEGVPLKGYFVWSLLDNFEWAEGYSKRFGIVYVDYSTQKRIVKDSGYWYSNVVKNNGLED

[2] = molecular target: recombinant human GAA (Myozyme), lysosomal α-glucosidase (Homo sapiens, UniProt P10253); assay: Enzyme activity assay, apparent IC50 on GAA; assay type: biochemical

Row | SMILES | inhibition of TmGH1 (in words) [1] | Ki [1] [µM] | IC50 [2] [µM] | inhibition of GAA (in words) ([2]; final concentrations up to 150 μM)
1 | OC[C@@H]1[C@@H](O)[C@H](O)[C@@H](O)CN1CCCCCOCC12CC3CC(CC(C3)C1)C2 [AMP-DNM (MZ-21), reference compound] | low micromolar |  |  | 
2 | CCOC(=O)[C@@H]1[C@H]2[C@H](O)[C@@H](O)[C@H](O)[C@@H](CO)[C@@H]12 [Compound 3] | micromolar inhibition | 22.3 | > 150 | 
3 | [N-]=[N+]=NCCCCNC(=O)[C@@H]1[C@H]2[C@H](O)[C@@H](O)[C@H](O)[C@@H](CO)[C@@H]12 [Compound 5] |  | 0.0082 | > 150 | No apparent inhibition
4 | OC[C@H]1NC[C@H](O)[C@@H](O)[C@@H]1O [DNJ, deoxynojirimycin, reference compound] | low micromolar | 2.5 |  | 
